# Test results from patent publication US20050004138A1 (Pfizer Inc, priority 2003, published 2005).
# Legend:
# Social Phobia = assay: Treatment of subjects diagnosed with Social Phobia; assay type: in vivo, human; details: subjects aged 18 to 55 years with Social Phobia; about 40 to about 200 mg/day
# Specific Phobia = assay: Treatment of subjects diagnosed with Specific Phobia; assay type: in vivo, human; details: subjects aged 18 to 55 years with Specific Phobia; about 40 to about 200 mg/day
compound,measurement,setting,value
"O=C1Cc2cc(CCN3CCN(c4nsc5ccccc45)CC3)c(Cl)cc2N1 [Ziprasidone, 5-(2-(4-(1,2-benzisothiazol-3-yl)piperazinyl)ethyl)chlorooxindole]",tolerability / side effects,Social Phobia,well tolerated
same,tolerability / side effects,Specific Phobia,well tolerated
